Molecular target: T1, Bifunctional epoxide hydrolase 2 (Homo sapiens, UniProt P34913)
T1 sequence (P34913 whole entry): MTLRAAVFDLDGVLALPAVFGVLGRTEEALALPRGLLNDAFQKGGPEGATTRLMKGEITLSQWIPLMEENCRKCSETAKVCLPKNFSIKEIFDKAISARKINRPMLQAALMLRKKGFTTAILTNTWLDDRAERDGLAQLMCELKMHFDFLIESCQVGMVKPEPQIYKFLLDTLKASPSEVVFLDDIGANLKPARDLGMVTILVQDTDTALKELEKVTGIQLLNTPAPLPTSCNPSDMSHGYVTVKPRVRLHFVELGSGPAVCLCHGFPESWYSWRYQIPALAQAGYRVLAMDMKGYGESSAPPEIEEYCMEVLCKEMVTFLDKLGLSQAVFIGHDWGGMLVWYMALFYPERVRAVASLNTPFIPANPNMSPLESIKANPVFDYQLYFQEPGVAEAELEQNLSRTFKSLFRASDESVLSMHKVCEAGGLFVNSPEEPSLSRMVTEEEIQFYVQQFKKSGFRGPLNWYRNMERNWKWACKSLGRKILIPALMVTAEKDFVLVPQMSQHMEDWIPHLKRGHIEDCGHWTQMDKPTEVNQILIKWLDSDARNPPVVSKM
Assay: Inhibition of soluble epoxide hydrolase by fluorescence assay

Row | Compound | IC50
1 | O=C(Nc1ccc(F)cc1)Nc1ccc(C(=O)NCCN2CCOCC2)cc1 | 140 nM
2 | O=C(Nc1ccc(Cl)cc1)Nc1ccc(C(=O)NCCN2CCOCC2)cc1 | 16 nM
3 | O=C(Nc1ccc(C(=O)NCCN2CCOCC2)cc1)Nc1ccc(C(F)(F)F)cc1 | 1 nM
4 | O=C(Nc1ccc(OC(F)(F)F)cc1)Nc1ccc(C(=O)NCCN2CCOCC2)cc1 | 2 nM
5 | CN1CCN(C(=O)c2ccc(NC(=O)Nc3ccc(C(F)(F)F)cc3)cc2F)CC1 | 4 nM
6 | O=C(Nc1ccc(C(F)(F)F)cc1)Nc1ccc(C(=O)NCCN2CCCC2)c(F)c1 | 19 nM
7 | O=C(Nc1ccccc1)Nc1ccc(C(=O)NCCN2CCOCC2)cc1 | 320 nM
8 | O=C(Nc1ccc(Cl)cc1)Nc1ccc(F)c(C(=O)NCCN2CCCC2)c1 | 760 nM
9 | O=C(Nc1ccc(Cl)cc1)Nc1ccc(F)c(C(=O)NCCN2CCOCC2)c1 | 38 nM
10 | O=C(Nc1ccc(C(F)(F)F)cc1)Nc1ccc(F)c(C(=O)NCCN2CCOCC2)c1 | 18 nM
11 | O=C(Nc1ccc(C(=O)Nc2cccnc2)cc1)Nc1ccc(C(F)(F)F)cc1 | 8 nM
12 | O=C(Nc1ccc(C(F)(F)F)cc1)Nc1ccc(F)c(C(=O)N2CCOCC2)c1 | 8 nM
13 | O=C(Nc1ccc(C(=O)N2CCOCC2)cc1)Nc1ccc(C(F)(F)F)cc1 | 5 nM
14 | O=C(Nc1ccc(OC(F)(F)F)cc1)Nc1ccc(C(=O)N2CCOCC2)cc1 | 4 nM
15 | O=C(Nc1ccc(C(=O)NCC(=O)N2CCOCC2)cc1)Nc1ccc(C(F)(F)F)cc1 | 3 nM
16 | O=C(O)CNC(=O)c1ccc(NC(=O)NC23CC4CC(CC(C4)C2)C3)cc1 | 490 nM
17 | O=C(Nc1ccccc1)Nc1cccc(S(=O)(=O)CCCN2CCOCC2)c1 | 100 nM
18 | O=C(Nc1ccc(C(F)(F)F)cc1)Nc1cccc(S(=O)(=O)CCCN2CCOCC2)c1 | 1 nM
19 | O=C(O)CCCNC(=O)c1ccc(NC(=O)Nc2ccc(C(F)(F)F)cc2)cc1 | 19 nM
20 | O=C(O)COCCNC(=O)c1ccc(NC(=O)NC23CC4CC(CC(C4)C2)C3)cc1 | 80 nM
21 | O=C(Nc1ccc(Cl)cc1)Nc1ccc(C(=O)N2CCC(N3CCOCC3)CC2)cc1 | 235 nM
22 | O=C(Nc1ccccc1)Nc1ccc(C(=O)N2CCOCC2)cc1 | 251 nM

Row | Compound | IC50
23 | O=C(Nc1ccc(F)cc1)Nc1ccc(C(=O)N2CCOCC2)cc1 | 170 nM
24 | O=C(Nc1ccc(C(=O)c2ccc(C(=O)O)cc2)cc1)Nc1ccc(C(F)(F)F)cc1 | 20 nM
25 | O=C(O)CNC(=O)c1cccc(NC(=O)NC23CC4CC(CC(C4)C2)C3)c1 | 800 nM
26 | O=C(Nc1ccc(Cl)cc1)Nc1ccc(C(=O)N2CCOCC2)cc1 | 18 nM
27 | O=C(Nc1ccc(C(F)(F)F)cc1)Nc1ccc(S(=O)(=O)N2CCOCC2)cc1 | 1 nM
28 | O=C(Nc1ccccc1)Nc1ccc(S(=O)(=O)CCCN2CCOCC2)cc1 | 54 nM
29 | CN(CC(=O)O)C(=O)c1cccc(NC(=O)NC23CC4CC(CC(C4)C2)C3)c1 | 230 nM
30 | O=C(Nc1ccc(C(F)(F)F)cc1)Nc1ccc(S(=O)(=O)CCCN2CCOCC2)cc1 | 1 nM
31 | CC(C)N1CCN(S(=O)(=O)c2cccc(NC(=O)Nc3ccc(C(F)(F)F)cc3)c2)CC1 | 3 nM
32 | CC(C)N1CCN(S(=O)(=O)c2ccc(NC(=O)Nc3ccc(C(F)(F)F)cc3)cc2)CC1 | 5 nM
33 | O=C(Nc1ccc(C(F)(F)F)cc1)Nc1ccc(S(=O)(=O)NCCN2CCOCC2)cc1 | 3 nM
34 | O=C(Nc1ccc(C(F)(F)F)cc1)Nc1cccc(S(=O)(=O)N2CCOCC2)c1 | 1 nM
35 | CN(CC(=O)O)C(=O)c1ccc(NC(=O)NC23CC4CC(CC(C4)C2)C3)cc1 | 200 nM
36 | O=C(Nc1ccc(C(F)(F)F)cc1)Nc1ccc(C(=O)NCCN2CCOCC2)c(F)c1 | 2 nM
37 | CN1CCN(C(=O)c2ccc(NC(=O)Nc3ccc(OC(F)(F)F)cc3)cc2)CC1 | 7 nM
38 | CC(C)N1CCN(C(=O)c2ccc(NC(=O)Nc3ccc(C(F)(F)F)cc3)cc2)CC1 | 2 nM
39 | CC(C)N1CCN(C(=O)c2ccc(NC(=O)Nc3ccc(OC(F)(F)F)cc3)cc2)CC1 | 4 nM
40 | O=C(Nc1ccc(Cl)cc1)Nc1ccc(C(=O)N2CCOCC2)c(F)c1 | 11 nM
41 | O=C(Nc1ccc(C(F)(F)F)cc1)Nc1ccc(C(=O)N2CCOCC2)c(F)c1 | 2 nM
42 | O=C(Nc1ccc(C(=O)N2CCNCC2)cc1)NC12CC3CC(CC(C3)C1)C2 | 12 nM
43 | CN1CCN(C(=O)c2ccc(NC(=O)Nc3ccc(C(F)(F)F)cc3)cc2)CC1 | 14 nM
44 | O=C(O)CCCNC(=O)c1cccc(NC(=O)Nc2ccc(C(F)(F)F)cc2)c1 | 120 nM

Row | Compound | IC50
45 | O=C(O)COCCNC(=O)c1cccc(NC(=O)NC23CC4CC(CC(C4)C2)C3)c1 | 130 nM
46 | O=C(Nc1ccc(C(F)(F)F)cc1)Nc1cccc(C(=O)c2ccc(C(=O)O)cc2)c1 | 27 nM
47 | O=C(Nc1ccc(C(=O)NCCN2CCCC2)cc1)Nc1ccc(C(F)(F)F)cc1 | 48 nM
48 | O=C(Nc1ccc(C(=O)NCCN2CCOCC2)cc1)Nc1ccc(C2CCCCC2)cc1 | 19 nM
49 | O=C(Nc1ccc(C(=O)NCCN2CCOCC2)cc1)NC12CC3CC(CC(C3)C1)C2 | 3 nM
50 | O=C(Nc1ccc(Cl)cc1)Nc1cccc(C(=O)NCCN2CCOCC2)c1 | 130 nM
51 | O=C(Nc1ccc(C(F)(F)F)cc1)Nc1cccc(C(=O)NCCN2CCOCC2)c1 | 22 nM
52 | O=C(Nc1ccc(C(F)(F)F)cc1)Nc1cccc(C(=O)Nc2cccnc2)c1 | 18 nM
53 | COCCNC(=O)c1cccc(NC(=O)NC23CC4CC(CC(C4)C2)C3)c1 | 110 nM
54 | CN1CCN(C(=O)c2cc(NC(=O)Nc3ccc(C(F)(F)F)cc3)ccc2F)CC1 | 16 nM
55 | O=C(Nc1ccc(Cl)cc1)Nc1cccc(C(=O)N2CCC(N3CCOCC3)CC2)c1 | 47 nM
56 | O=C(Nc1ccc(Cl)cc1)Nc1cccc(C(=O)N2CCOCC2)c1 | 49 nM
57 | CN1CCN(C(=O)c2cccc(NC(=O)Nc3ccc(C(F)(F)F)cc3)c2)CC1 | 12 nM
58 | CC(C)N1CCN(C(=O)c2cccc(NC(=O)Nc3ccc(C(F)(F)F)cc3)c2)CC1 | 15 nM
59 | O=C(Nc1ccc(C(F)(F)F)cc1)Nc1cccc(C(=O)NCCN2CCCC2)c1 | 68 nM
60 | O=C(Nc1ccc(C2CCCCC2)cc1)Nc1cccc(C(=O)NCCN2CCOCC2)c1 | 280 nM
61 | CN1CCN(C(=O)c2ccc(NC(=O)Nc3ccc(F)cc3)cc2)CC1 | 160 nM
62 | O=C(Nc1cccc(C(=O)NCCN2CCOCC2)c1)NC12CC3CC(CC(C3)C1)C2 | 62 nM
63 | O=C(Nc1ccccc1)Nc1cccc(C(=O)NCCN2CCOCC2)c1 | 2800 nM
64 | COCCNC(=O)c1ccc(NC(=O)NC23CC4CC(CC(C4)C2)C3)cc1 | 54 nM
65 | O=C(Nc1ccc(C(F)(F)F)cc1)Nc1cccc(S(=O)(=O)NCCN2CCOCC2)c1 | 1 nM
66 | CN1CCN(C(=O)c2cccc(NC(=O)NC34CC5CC(CC(C5)C3)C4)c2)CC1 | 36 nM
